# Source: US20250381220A1, “MAGNESIUM-L-THREONATE AND NEUROTRANSMITTER COMPOSITIONS AND RELATED METHODS” (Neuro Supplements, LLC, priority 2020, published 2025)
# Test system: Male Wistar Rats
# Test: Morris Water Maze (MWM) probe test
# Format: in vivo, rat
# Conditions: 21 days through drinking water, probe test day 21, FIG. 4, MgT 435, PS 60 mg/kg bw/day
substance,measurement,value
phosphatidylserine [PS],time spent in target quadrant,significant increase
